Our source for the inhibition values is patent US9375013B2, “Herbicidal composition” (ISHIHARA SANGYO KAISHA, LTD., priority 2013, dated 2016).

Holding throughout (format): in vivo
Assay [1] has as its system ivy-leaved morningglory (Ipomoea hederacea (L.) Jacq.). In words: Test Example 2: pot soil treatment, growth inhibition of ivy-leaved morningglory. To be noted: 22nd day after treatment, read-out: Growth inhibition rate (%) of ivy-leaved morningglory, Measured value. An excerpt: (§1) On the 14th day after treatment, the state of growth of the summergrass was visually observed to determine the growth inhibition rate in accordance with the following evaluation standard. The growth inhibition rate (%) (measured value) and the growth inhibition rate (%) (calculated value) calculated by the Colby's formula are shown in Table 1. Growth inhibition rate (%)=0 (equivalent to the non-treated area) to 100 (complete kill) Upland field soil was put into a 1/160,000 ha pot, and seeds of ivy-leaved morningglory (Ipomoea hederacea (L.) Jacq.) were sown. On the next day, predetermined amounts of flazasulfuron and hexazinone were diluted with water (in an amount corresponding to 300 L/ha), and applied for soil treatment by a small sprayer. On the 22nd day after treatment, the state of growth of the ivy-leaved morningglory was visually observed to determine the growth inhibition rate. The growth inhibition rate (%) (measured value) and the growth inhibition rate (%) calculated in the same manner as in Test Example 1 are shown in Table 2.

Assay [2] concerns shattercane (Sorghum bicolor (L.) Moench.). As to the kind of experiment: Test Example 6: pot soil treatment, growth inhibition of shattercane. As to conditions: dose 100 g/ha, 22nd day after treatment, read-out: Growth inhibition rate (%) of shattercane, Measured value. An excerpt:
On the 14th day after treatment, the state of growth of the summergrass was visually observed to determine the growth inhibition rate in accordance with the following evaluation standard. The growth inhibition rate (%) (measured value) and the growth inhibition rate (%) (calculated value) calculated by the Colby's formula are shown in Table 1. Growth inhibition rate (%)=0 (equivalent to the non-treated area) to 100 (complete kill)
Upland field soil was put into a 1/160,000 ha pot, and seeds of shattercane (Sorghum bicolor (L.) Moench.) were sown. On the next day, predetermined amounts of flazasulfuron and hexazinone were diluted with water (in an amount corresponding to 300 L/ha), and applied for soil treatment by a small sprayer.
On the 22nd day after treatment, the state of growth of the shattercane was visually observed to determine the growth inhibition rate. The growth inhibition rate (%) (measured value) and the growth inhibition rate (%) calculated in the same manner as in Test Example 1 are shown in Table 6.

Assay [3] has as its system velvetleaf (Abutilon theophrasti MEDIC.). In words: Test Example 14: pot soil treatment, growth inhibition of velvetleaf. As to conditions: dose 200 g/ha, 21st day after treatment, read-out: Growth inhibition rate (%) of velvetleaf, Measured value.
Excerpt: as §1, with “velvetleaf (Abutilon theophrasti MEDIC.)” for “ivy-leaved morningglory (Ipomoea hederacea (L.) Jacq.)”, “21st” for “22nd”, “velvetleaf” for “ivy-leaved morningglory”, “14.” for “2.”

Assay [4] relates to field bindweed (Convolvulus arvensis L.). In words: Test Example 5: pot soil treatment, growth inhibition of field bindweed. To be noted: dose 300 g/ha, 22nd day after treatment, read-out: Growth inhibition rate (%) of field bindweed, Measured value.
Excerpt: as §1, with “field bindweed (Convolvulus arvensis L.)” for “ivy-leaved morningglory (Ipomoea hederacea (L.) Jacq.)”, “field bindweed” for “ivy-leaved morningglory”, “5.” for “2.”

For assay [5], the system named is barnyardgrass (Echinochloa crus-galli L). As to the kind of experiment: Test Example 9: pot soil treatment, growth inhibition of barnyardgrass. To be noted: dose 100 g/ha, 21st day after treatment, read-out: Growth inhibition rate (%) of barnyardgrass, Measured value.
Excerpt: as §1, with “barnyardgrass (Echinochloa crus-galli L)” for “ivy-leaved morningglory (Ipomoea hederacea (L.) Jacq.)”, “21st” for “22nd”, “barnyardgrass” for “ivy-leaved morningglory”, “9.” for “2.”

The subject of assay [6] is persian speedwell (Veronica persica Poiret.). As to the kind of experiment: Test Example 10: pot soil treatment, growth inhibition of persian speedwell. To be noted: dose 100 g/ha, 21st day after treatment, read-out: Growth inhibition rate (%) of persian speedwell, Measured value.

The term inhibition denotes the share of the control response that was lost under treatment.

The structures appear in SMILES notation.

Take `CN(C)c1nc(=O)n(C2CCCCC2)c(=O)n1C` [Hexazinone, hexazinone]: the inhibition at 100 g/ha in assay [1] (dose 100 g/ha) amounted to 0%; in assay [2], 0%; in assay [5] it was 0%; in assay [6], 85%. Further, the inhibition at 200 g/ha in assay [1] (dose 200 g/ha) and in assay [3] was 30% in each case. In addition, the inhibition at 300 g/ha in assay [1] (dose 300 g/ha) worked out at 40%; in assay [4], 15%.
